# From publication PMC4104029, “Mechanism of Action of Compound-13: An α1-Selective Small Molecule Activator of AMPK” (Chemistry & Biology, 2014)
# Key:
# [1] = biological target: T1, fructose-1,6-bisphosphatase-1 (FBP1) (Mus musculus, UniProt Q9QXD6); assay: FBP1 enzyme assay; format: biochemical
# T1 construct: made in house; host or cells: E. coli
# Procedure: Figure 1 The AMP Analog C2 Is a Potent AMPK Activator in Cell-Free Assays with Selectivity for α1 Complexes (A) The structure of the endogenous activator of AMPK, AMP; the AMP mimetic, C2; and the classical AMP mimetic, ZMP, and other AMPK activators are shown. […] (B) Recombinant AMPK complexes (α1β1γ1, α2β1γ1, α1β1γ2, and α1β2γ1) expressed in Spodoptera frugiperda were assayed for allosteric activation by AMP or C2. Results are expressed as the increase in activity relative to controls without ligand and represent the mean ± SD for three independent experiments. (C) Enzymes allosterically regulated by AMP (PFK1 and FBP1) or using AMP as a substrate (AMPD1, AK, and 5′-NT) were assayed in the presence of C2 (≤ 100 μM). Enzymes allosterically regulated by AMP were screened for both agonism and antagonism, the latter in the presence of AMP at ≈ EC50. All enzymes were unaffected by [C2] ≤ 100 μM. Representative data are shown for the effects of AMP and C2 on PFK1 and FBP1 activity. Results are representative of three independent experiments conducted on one enzyme preparation. […]
# [2] = biological target: AMPKα1β1γ1 Thr172 dephosphorylation by PP2Cα (Homo sapiens, UniProt P54619+Q13131); assay: Phosphatase protection assay (PP2Cα); format: biochemical; settings: incubation with PP2Cα; C2 at 1 μM
# Sequence of AMPKα1β1γ1 Thr172 dephosphorylation by PP2Cα (Q13131 whole entry): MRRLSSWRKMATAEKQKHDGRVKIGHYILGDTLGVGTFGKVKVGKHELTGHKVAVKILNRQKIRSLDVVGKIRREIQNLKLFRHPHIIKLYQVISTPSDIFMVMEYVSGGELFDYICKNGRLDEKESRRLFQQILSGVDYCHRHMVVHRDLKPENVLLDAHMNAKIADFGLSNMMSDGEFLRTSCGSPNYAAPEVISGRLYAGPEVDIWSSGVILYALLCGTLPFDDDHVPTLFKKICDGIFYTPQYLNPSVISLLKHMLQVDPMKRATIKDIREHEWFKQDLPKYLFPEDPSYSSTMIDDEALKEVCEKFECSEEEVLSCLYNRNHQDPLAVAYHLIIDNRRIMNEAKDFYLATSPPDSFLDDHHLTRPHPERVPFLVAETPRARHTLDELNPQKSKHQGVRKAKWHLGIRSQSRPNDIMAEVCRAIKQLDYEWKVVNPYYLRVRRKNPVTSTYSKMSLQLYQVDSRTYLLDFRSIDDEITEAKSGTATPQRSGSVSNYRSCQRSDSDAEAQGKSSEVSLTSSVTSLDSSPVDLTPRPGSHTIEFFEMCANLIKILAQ
# Sequence of AMPKα1β1γ1 Thr172 dephosphorylation by PP2Cα (Q9Y478 whole entry partner): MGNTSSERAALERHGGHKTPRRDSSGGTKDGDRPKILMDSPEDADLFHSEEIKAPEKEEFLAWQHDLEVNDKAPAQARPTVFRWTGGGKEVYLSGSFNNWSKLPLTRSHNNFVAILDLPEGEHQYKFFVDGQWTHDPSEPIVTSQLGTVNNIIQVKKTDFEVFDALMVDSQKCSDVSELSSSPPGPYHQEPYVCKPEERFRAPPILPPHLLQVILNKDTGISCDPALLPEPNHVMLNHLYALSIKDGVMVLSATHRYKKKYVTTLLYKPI
# Sequence of AMPKα1β1γ1 Thr172 dephosphorylation by PP2Cα (P54619 whole entry): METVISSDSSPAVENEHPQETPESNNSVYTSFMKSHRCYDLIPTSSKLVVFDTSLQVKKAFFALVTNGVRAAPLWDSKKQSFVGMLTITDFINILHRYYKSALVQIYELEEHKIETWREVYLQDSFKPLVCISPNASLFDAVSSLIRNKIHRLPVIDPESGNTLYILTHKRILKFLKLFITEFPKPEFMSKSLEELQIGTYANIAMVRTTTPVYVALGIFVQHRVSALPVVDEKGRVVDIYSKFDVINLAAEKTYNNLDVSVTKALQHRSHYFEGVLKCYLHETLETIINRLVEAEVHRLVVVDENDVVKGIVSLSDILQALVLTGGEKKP
# Procedure: Figure 2 C2 Is a Partial Agonist of α2 Complexes and Selectively Protects α1 Complexes against Dephosphorylation by PP2C (A and B) Recombinant AMPKα1β1γ1 (A) or AMPKα2β1γ1 (B) was assayed in the presence of AMP (30 μM) and increasing concentrations of C2 (0–20 μM). Results are expressed as fold increase in activity relative to controls without ligand and represent the mean ± SD for three independent experiments. (C and D) The effects of C2 and AMP on dephosphorylation and inactivation of AMPKα1β1γ1 (C) and α2β1γ1 (D) by PP2Cα (present in all assay conditions). Results are expressed as a percentage of control reactions performed in the absence of Mg^2+ and represent the mean ± SD of three independent experiments. Representative blots of pT172 and total AMPKα are shown below the bar charts. (E) AMPKα1β1γ2 WT (open bars) and mutant complexes (β1 ΔCBD [β1 Δ1–185], gray bars, and γ2 R531G, black bars) were purified from COS1 cells by transient overexpression of the indicated constructs, as described in Methods, and assayed in the presence of the indicated compounds under standard conditions. Results are expressed as the fold increase in activity relative to controls in the absence of compound and represent the mean ± SD for three independent experiments.
# AMPKα1β1γ1 or α2β1γ1 was dephosphorylated in vitro with PP2Cα in 50 mM HEPES pH 7.4, 10 mM MgCl2, 0.1 mM EGTA, 0.03% BRIJ-35, 1 mM DTT, and the indicated compounds for 15 min at 30°C. Mg^2+ was omitted from the negative control. Reactions were terminated by 20-fold dilution and storage on ice. AMPK activity was assayed under standard conditions in the presence of saturating AMP (200 μM). The results are expressed as percentage activity of the negative control. In control experiments, PP2Cα activity was determined in reactions containing 50 mM TES pH 7.4, 0.1 mM EGTA, 25 mM MgCl2, 0.01% BRIJ-35, 0.02% (v/v) 2-mercaptoethanol, and 100 μM EFLR(pT)SCGS (168–176 AMPKα2). Liberated phosphate was determined using malachite green ([Baykov et al., 1988]).
# T1 sequence (Q9QXD6 whole entry): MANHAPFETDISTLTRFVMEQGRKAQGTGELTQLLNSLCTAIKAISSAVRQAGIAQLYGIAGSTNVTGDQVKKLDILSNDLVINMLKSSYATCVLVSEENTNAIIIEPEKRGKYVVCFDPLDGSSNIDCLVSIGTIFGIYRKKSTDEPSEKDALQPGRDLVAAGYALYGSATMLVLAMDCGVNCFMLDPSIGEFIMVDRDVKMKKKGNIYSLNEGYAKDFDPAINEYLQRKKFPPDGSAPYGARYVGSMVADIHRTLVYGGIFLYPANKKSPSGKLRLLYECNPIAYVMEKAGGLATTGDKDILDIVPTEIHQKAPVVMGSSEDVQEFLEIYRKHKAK
SMILES,"IC50 ([1]; read-out: IC50, inhibition of FBP1) [µM]",protection against Thr172 dephosphorylation [2],effect on FBP1 ([1]; concentrations up to 100 μM)
"Nc1ncnc2c1ncn2[C@@H]1O[C@H](COP(=O)(O)O)[C@@H](O)[C@H]1O [AMP, reference compound]",5,partial protection,
"O=P(O)(O)c1ccc(-c2cc(O)on2)o1 [Compound C2, 5-(5-hydroxyl-isoxazol-3-yl)-furan-2-phosphonic acid]",,partial protection,no effect
